Laboratory results as given in ChEMBL document CHEMBL1148426, “Essential structural features of acetogenins: role of hydroxy groups adjacent to the bis-THF rings” (Bioorg Med Chem Lett, 2004).

Assays:
[1] = molecular target: Mitochondrial complex I; NADH oxidoreductase (Bos taurus, UniProt P25708+P52505); experiment: Inhibitory concentration needed to halve the control NADH oxidase activity in bovine heart submitochondrial particles (SMP); type: protein-complex assay
[2] = molecular target: Mitochondrial complex I; NADH oxidoreductase (Bos taurus) (UniProt P25708+P52505); experiment: Maximum inhibition (2 uM) halve the control NADH oxidase activity in bovine heart submitochondrial particles (SMP); type: protein-complex assay

Mitochondrial complex I; NADH oxidoreductase, sequence (P25708 21-464 limits assumed, other chains not shown): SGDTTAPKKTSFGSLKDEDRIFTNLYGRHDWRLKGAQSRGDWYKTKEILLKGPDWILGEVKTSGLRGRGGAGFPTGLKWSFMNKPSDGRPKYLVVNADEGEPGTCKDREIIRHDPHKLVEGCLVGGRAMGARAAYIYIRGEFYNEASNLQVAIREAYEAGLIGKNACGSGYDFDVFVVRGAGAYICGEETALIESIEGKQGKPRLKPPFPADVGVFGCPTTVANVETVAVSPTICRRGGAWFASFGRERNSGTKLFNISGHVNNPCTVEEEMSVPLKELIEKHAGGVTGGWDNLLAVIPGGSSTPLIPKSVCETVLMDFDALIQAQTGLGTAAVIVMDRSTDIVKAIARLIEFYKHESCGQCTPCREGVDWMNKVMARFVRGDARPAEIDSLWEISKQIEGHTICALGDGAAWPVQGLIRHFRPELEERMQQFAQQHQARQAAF

Row | SMILES | IC50 [1] [nM] | inhibition [2] [%]
1 | CCCCCCCCCCC[C@H]1CC[C@H]([C@H]2CC[C@H]([C@H](O)CCCCCCCCCCCCC3=C[C@H](C)OC3=O)O2)O1 | 3.1 | –
2 | CCCCCCCCCC[C@@H](O)[C@H]1CC[C@H]([C@H]2CC[C@H]([C@H](O)CCCCCCCCCCCCC3=C[C@H](C)OC3=O)O2)O1 [ISODESAACETYLUVARICIN] | 0.75 | –
3 | CCCCCCCCCCC[C@H]1CC[C@H]([C@H]2CC[C@H](CCCCCCCCCCCCCC3=C[C@H](C)OC3=O)O2)O1 | 85 | 85
4 | CCCCCCCCCC[C@@H](O)[C@H]1CC[C@H]([C@H]2CC[C@H](CCCCCCCCCCCCCC3=C[C@H](C)OC3=O)O2)O1 | 2.7 | –
